Reference: ChEMBL document CHEMBL3885861, “Open TG-GATES”

Organism: Rattus norvegicus
Test: Open TG-GATES - Regimen: Daily Repeat
Format: toxicity, organism-based, Sprague-Dawley
Design: regimen Daily Repeat, gender Male, age 6 weeks
Conditions: in vivo, po, 0 mg/kg, route gavage, dose level Control; for APTT / Bas / Eos / Fbg / Hb / Ht / Lym / MCH / MCHC / MCV / Mono / Neu / PT / Plat / RBC / Ret / WBC: tissue Blood; for KIDNEY_L / KIDNEY_R / KIDNEY_TOTAL: tissue Kidney; for LIVER: tissue Liver; for A/G / ALP / ALT / AST / BUN / CRE / Ca / Cl / DBIL / GLC / IP / K / LDH / Na / PL / RALB / TBIL / TC / TG / TP / gamma-GTP: tissue Plasma

CCc1oc2ccccc2c1C(=O)c1cc(Br)c(O)c(Br)c1 [BENZBROMARONE]
TERMINAL_BW (72 h, time 3 day): 230.4 g | APTT (72 h, time 3 day): 16.2 s | Bas (72 h, time 3 day): 0% | Eos (72 h, time 3 day): 1.6% | Fbg (72 h, time 3 day): 232 mg/dL | Hb (72 h, time 3 day): 14.5 g/dL | Ht (72 h, time 3 day): 42.7% | Lym (72 h, time 3 day): 73% | MCH (72 h, time 3 day): 22.5 pg | MCHC (72 h, time 3 day): 34% | MCV (72 h, time 3 day): 66.2 fL | Mono (72 h, time 3 day): 6.6% | Neu (72 h, time 3 day): 18.6% | PT (72 h, time 3 day): 11.7 s | Plat (72 h, time 3 day): 111.1 x10_4/uL | RBC (72 h, time 3 day): 645.6 x10_4/ul | Ret (72 h, time 3 day): 7.2% | WBC (72 h, time 3 day): 113.8 x10_2/uL | KIDNEY_L (72 h, time 3 day): 1 g | KIDNEY_R (72 h, time 3 day): 1 g | KIDNEY_TOTAL (72 h, time 3 day): 2 g | LIVER (72 h, time 3 day): 11.1 g | A/G (72 h, time 3 day): 2 | ALP (72 h, time 3 day): 921.2 IU/L | ALT (72 h, time 3 day): 34.6 IU/L | AST (72 h, time 3 day): 62.8 IU/L | BUN (72 h, time 3 day): 16.4 mg/dL | CRE (72 h, time 3 day): 0.5 mg/dL | Ca (72 h, time 3 day): 9.9 mg/dL | Cl (72 h, time 3 day): 106.3 meq/L | DBIL (72 h, time 3 day): 0.008 mg/dL | GLC (72 h, time 3 day): 197 mg/dL | IP (72 h, time 3 day): 7.5 mg/dL | K (72 h, time 3 day): 5.1 meq/L | LDH (72 h, time 3 day): 84.6 IU/L | Na (72 h, time 3 day): 139.5 meq/L | PL (72 h, time 3 day): 156.8 mg/dL | RALB (72 h, time 3 day): 3.9 g/dL | TBIL (72 h, time 3 day): 0.3 mg/dL | TC (72 h, time 3 day): 82 mg/dL | TG (72 h, time 3 day): 106 mg/dL | TP (72 h, time 3 day): 5.9 g/dL | gamma-GTP (72 h, time 3 day): 0.6 IU/L | TERMINAL_BW ([…], time 7 day): 262.9 g | TERMINAL_BW ([…], time 14 day): 315 g | TERMINAL_BW ([…], time 28 day): 382.2 g | APTT ([…], time 7 day): 16.8 s | Bas ([…], time 7 day): 0% | Eos ([…], time 7 day): 1% | Fbg ([…], time 7 day): 236.4 mg/dL | Hb ([…], time 7 day): 14.5 g/dL | Ht ([…], time 7 day): 42.7% | Lym ([…], time 7 day): 80% | MCH ([…], time 7 day): 21.4 pg | MCHC ([…], time 7 day): 33.8% | MCV ([…], time 7 day): 63.3 fL | Mono ([…], time 7 day): 6.6% | Neu ([…], time 7 day): 12.4% | PT ([…], time 7 day): 11.9 s | Plat ([…], time 7 day): 113.2 x10_4/uL | RBC ([…], time 7 day): 675 x10_4/ul | Ret ([…], time 7 day): 5.5% | WBC ([…], time 7 day): 109.7 x10_2/uL | APTT ([…], time 14 day): 16 s | Bas ([…], time 14 day): 0% | Eos ([…], time 14 day): 1.6% | Fbg ([…], time 14 day): 223.8 mg/dL | Hb ([…], time 14 day): 14.7 g/dL | Ht ([…], time 14 day): 43.8% | Lym ([…], time 14 day): 77.4% | MCH ([…], time 14 day): 20.9 pg | MCHC ([…], time 14 day): 33.6% | MCV ([…], time 14 day): 62.3 fL | Mono ([…], time 14 day): 4.4% | Neu ([…], time 14 day): 16.8% | PT ([…], time 14 day): 11.8 s | Plat ([…], time 14 day): 110.7 x10_4/uL | RBC ([…], time 14 day): 703.4 x10_4/ul | Ret ([…], time 14 day): 4.7% | WBC ([…], time 14 day): 138.1 x10_2/uL | APTT ([…], time 28 day): 16.6 s | Bas ([…], time 28 day): 0% | Eos ([…], time 28 day): 1% | Fbg ([…], time 28 day): 230.2 mg/dL | Hb ([…], time 28 day): 15.5 g/dL | Ht ([…], time 28 day): 46.5% | Lym ([…], time 28 day): 83.8% | MCH ([…], time 28 day): 18.6 pg | MCHC ([…], time 28 day): 33.3% | MCV ([…], time 28 day): 55.9 fL | Mono ([…], time 28 day): 3.8% | Neu ([…], time 28 day): 11.4% | PT ([…], time 28 day): 12 s | Plat ([…], time 28 day): 106.6 x10_4/uL | RBC ([…], time 28 day): 832 x10_4/ul | Ret ([…], time 28 day): 2.6% | WBC ([…], time 28 day): 136.5 x10_2/uL | KIDNEY_L ([…], time 7 day): 1.1 g | KIDNEY_R ([…], time 7 day): 1.2 g | KIDNEY_TOTAL ([…], time 7 day): 2.3 g | KIDNEY_L ([…], time 14 day): 1.2 g | KIDNEY_R ([…], time 14 day): 1.2 g | KIDNEY_TOTAL ([…], time 14 day): 2.4 g | KIDNEY_L ([…], time 28 day): 1.4 g | KIDNEY_R ([…], time 28 day): 1.4 g | KIDNEY_TOTAL ([…], time 28 day): 2.9 g | LIVER ([…], time 7 day): 12.8 g | LIVER ([…], time 14 day): 13.9 g | LIVER ([…], time 28 day): 15.8 g | A/G ([…], time 7 day): 1.7 | ALP ([…], time 7 day): 777 IU/L | ALT ([…], time 7 day): 31.8 IU/L | AST ([…], time 7 day): 60.6 IU/L | BUN ([…], time 7 day): 20.4 mg/dL | CRE ([…], time 7 day): 0.5 mg/dL | Ca ([…], time 7 day): 10.3 mg/dL | Cl ([…], time 7 day): 106.5 meq/L | DBIL ([…], time 7 day): 0.02 mg/dL | GLC ([…], time 7 day): 197.2 mg/dL | IP ([…], time 7 day): 7.1 mg/dL | K ([…], time 7 day): 5.1 meq/L | LDH ([…], time 7 day): 102.2 IU/L | Na ([…], time 7 day): 138.3 meq/L | PL ([…], time 7 day): 157.8 mg/dL | RALB ([…], time 7 day): 3.9 g/dL | TBIL ([…], time 7 day): 0.3 mg/dL | TC ([…], time 7 day): 74.4 mg/dL | TG ([…], time 7 day): 136.4 mg/dL | TP ([…], time 7 day): 6.1 g/dL | gamma-GTP ([…], time 7 day): 1 IU/L | A/G ([…], time 14 day): 1.8 | ALP ([…], time 14 day): 712.8 IU/L | ALT ([…], time 14 day): 30.6 IU/L | AST ([…], time 14 day): 62.6 IU/L | BUN ([…], time 14 day): 18.2 mg/dL | CRE ([…], time 14 day): 0.5 mg/dL | Ca ([…], time 14 day): 10.2 mg/dL | Cl ([…], time 14 day): 108.1 meq/L | DBIL ([…], time 14 day): 0.008 mg/dL | GLC ([…], time 14 day): 187.6 mg/dL | IP ([…], time 14 day): 6.5 mg/dL | K ([…], time 14 day): 4.9 meq/L | LDH ([…], time 14 day): 85.6 IU/L | Na ([…], time 14 day): 140.1 meq/L | PL ([…], time 14 day): 158.6 mg/dL | RALB ([…], time 14 day): 3.9 g/dL | TBIL ([…], time 14 day): 0.3 mg/dL | TC ([…], time 14 day): 78.6 mg/dL | TG ([…], time 14 day): 139.8 mg/dL | TP ([…], time 14 day): 6.1 g/dL | gamma-GTP ([…], time 14 day): 1.2 IU/L | A/G ([…], time 28 day): 1.6 | ALP ([…], time 28 day): 607.6 IU/L | ALT ([…], time 28 day): 28.2 IU/L | AST ([…], time 28 day): 58 IU/L | BUN ([…], time 28 day): 19.6 mg/dL | CRE ([…], time 28 day): 0.6 mg/dL | Ca ([…], time 28 day): 9.7 mg/dL | Cl ([…], time 28 day): 106.7 meq/L | DBIL ([…], time 28 day): 0.006 mg/dL | GLC ([…], time 28 day): 182 mg/dL | IP ([…], time 28 day): 6.5 mg/dL | K ([…], time 28 day): 4.5 meq/L | LDH ([…], time 28 day): 89.8 IU/L | Na ([…], time 28 day): 139.4 meq/L | PL ([…], time 28 day): 146.4 mg/dL | RALB ([…], time 28 day): 4 g/dL | TBIL ([…], time 28 day): 0.3 mg/dL | TC ([…], time 28 day): 70.4 mg/dL | TG ([…], time 28 day): 146.8 mg/dL | TP ([…], time 28 day): 6.4 g/dL | gamma-GTP ([…], time 28 day): 1.4 IU/L
